Key:
[1] = Liver microsome stability, mouse; type: in vitro ADME; conditions: CD-1, mouse; for half-life at 3 μM / remaining at 0.5 h, 3 µM: liver microsomes; for half-life at 3 μM: incubation up to 30 min, read-out: liver microsome stability T1/2, mouse; for microsomal CLint at 3 μM: mouse liver microsomes; for remaining at 0.5 h, 3 µM: over the assay time course (30 min), read-out: % remaining, mouse LMs
Procedure: Human liver microsomes (HLMs, 20 mg/mL) and CD-1 mouse liver microsomes (MLMs, 20 mg/mL) were purchased from Xenotech. NADPH was purchased from Sigma-Aldrich and prepared in 10 mM stock solutions of distilled H2O (Invitrogen UltraPure). Verapamil and diphenhydramine were both purchased from Sigma-Aldrich and served as positive controls for HLM and MLM stability, respectively. Test compounds and positive controls were initially dissolved in DMSO to make 10 mM stock solutions. Sample solutions were then further diluted in 70% MeOH/H2O or 100% MeCN to 500 μM. Next, the reactions were prepared by mixing human or mouse liver microsomes (55 μL) with potassium phosphate buffer (100 mM, […]) in 1.5 mL Eppendorf tubes. The test compounds (6.6 μL of 500 μM solution) were subsequently added to the suspensions, and the reaction mixtures were incubated at 37 °C for 5 min. Afterward, the liver microsome reactions were initiated with 110 μL of 10 mM NADPH and further incubated at 37 °C for the designated time course of the study. This procedure provided experiments with a final volume of 1100 μL (<0.6% organic solvent content), a concentration for HLMs and MLMs of 1 mg/mL, and a final test compound concentration of 3 μM. Aliquots (100 μL) were removed from each reaction mixture in duplicate at 0, 5, 10, 15, and 30 min time intervals and quenched with 100 μL of cold internal standard solution (ISTD, 2 μM 7-ethoxy-d5-coumarin in MeOH or MeCN). Quenched aliquots were then centrifuged at 12 500 g for 5–10 min, and the resulting supernatants were withdrawn and placed in LC-MS vials to be analyzed by LC-MS/MS (Agilent G6460C QQQ MS coupled with an Infinity II 1260 HPLC). Each test compound was run in tandem with positive and negative control experiments for quality assurance. Positive control reactions were conducted at a final volume of 550 μL for a single run at each time point. Lastly, the negative control experiment was conducted with test compounds and liver microsomes in the absence of NADPH (150 μL) and analyzed at the 30 min time point.
(§1) For both LM and plasma assays, each data point was analyzed in triplicate using between blank washes to avoid carry over and to equilibrate the column for the subsequent runs. Averages of these triplicates for individual compounds at each time point were then normalized to the data at 0 min, representing 100% of the test compound remaining or 0% metabolism. Half-lives (t1/2) were calculated by plotting ln of % test compound remaining versus time and performing linear regression to determine slope. Slope = −k and t1/2 = 0.693/k for first-order kinetics (see Figures S5 and S6 for a representative example).

[2] = Plasma stability, mouse; type: in vitro ADME; conditions: for half-life at 3 μM / remaining at 120 min, 3 µM: male, BALB/C, mouse; for half-life at 3 μM: mouse plasma, incubation up to 120 min, read-out: plasma stability T1/2, mouse; for remaining at 120 min, 3 µM: plasma, over the assay time course
Procedure: Human plasma (lithium heparin (LiHep) mixed, gender pooled, 0.2 μm filtered) and mouse plasma (BALB/C, LiHep mixed, male pooled, 0.2 μm filtered) were purchased from BioIVT. Procaine (Sigma-Aldrich) served as a positive control for both human and mouse plasma experiments. Test compounds and positive controls were initially dissolved in DMSO to make 10 mM stock solutions. The solutions of test and control compounds were then further diluted in 70% MeOH/H2O or 100% MeCN to 500 μM. Next, the human or mouse plasma (994 μL) was aliquoted into 1.5 mL Eppendorf tubes with duplicates (reactions A and B) being prepared for each compound. The plasma was then incubated at 37 °C for 10 min. Afterward, the reaction was initiated by the addition of the test compound (6 μL of 500 μM solution) and further incubated at 37 °C for the designated time course of the study. This procedure provided duplicate experiments with a final volume of 1000 μL (<0.6% organic solvent content) and a final test compound concentration of 3 μM. Aliquots (100 μL) were removed from each reaction mixture at 0, 15, 30, 60, and 120 min time intervals and quenched with 150 μL of cold ISTD solution (2 μM 7-ethoxy-d5-coumarin in MeOH or MeCN). Quenched aliquots were then centrifuged at 15,000 g for 30–45 min, and the resulting supernatants (∼70 μL) were withdrawn and placed in LC-MS vials to be analyzed by LC-MS/MS (Agilent G6460C QQQ MS coupled with an Infinity II 1260 HPLC). Each test compound was run in tandem with positive and negative control experiments for quality assurance. The positive control reaction was conducted at a final volume of 1000 μL for a single run at each time point. Finally, the negative control experiment was conducted with test compounds in DPBS (143 μL) and analyzed at the 120 min time point.
as §1

half-life at 3 μM [1] [min]	microsomal CLint at 3 μM [1] [µL/min/mg]	half-life at 3 μM [2] [min]	remaining at 0.5 h, 3 µM [1] [%]	remaining at 120 min, 3 µM [2] [%]	metabolized in mouse plasma (% of prodrug) ([2]; after 2 h) [%]	Structure (SMILES)
7.2	96	1.4	–	–	–	O=C(CC(F)(F)C(=O)N1N=C(c2c(-c3ccc(Cl)cc3)c3ccccc3[nH]c2=O)CC1c1ccc(Cl)cc1)OCc1ccccc1 (centres unmarked) [2p]
–	231	> 120	–	–	–	CN(C)C(=O)CC(F)(F)C(=O)N1N=C(c2c(-c3ccc(Cl)cc3)c3ccccc3[nH]c2=O)CC1c1ccc(Cl)cc1 (centres unmarked) [2r]
2.6	267	4.2	–	–	–	CCOC(=O)CC(F)(F)C(=O)N1N=C(c2c(-c3ccc(Cl)cc3)c3ccccc3[nH]c2=O)CC1c1ccc(Cl)cc1 (centres unmarked) [2l]
4	173	4	–	–	–	CC(C)(C)COC(=O)CC(F)(F)C(=O)N1N=C(c2c(-c3ccc(Cl)cc3)c3ccccc3[nH]c2=O)CC1c1ccc(Cl)cc1 (centres unmarked) [2o]
> 30	< 23	> 120	> 95	> 95	–	O=C(O)CCC(=O)N1N=C(c2c(-c3ccc(Cl)cc3)c3ccccc3[nH]c2=O)CC1c1ccc(Cl)cc1 (centres unmarked) [2a]
≤ 7	178	> 120	–	–	–	CNC(=O)CC(F)(F)C(=O)N1N=C(c2c(-c3ccc(Cl)cc3)c3ccccc3[nH]c2=O)CC1c1ccc(Cl)cc1 (centres unmarked) [2q]
> 30	< 23	> 120	> 90	–	42	NC(=O)CC(F)(F)C(=O)N1N=C(c2c(-c3ccc(Cl)cc3)c3ccccc3[nH]c2=O)CC1c1ccc(Cl)cc1 (centres unmarked) [2k]
1.8	385	1.3	–	–	–	O=C(CC(F)(F)C(=O)N1N=C(c2c(-c3ccc(Cl)cc3)c3ccccc3[nH]c2=O)CC1c1ccc(Cl)cc1)OCC1CC1 (centres unmarked) [2n]
> 30	< 23	> 120	> 95	> 95	–	O=C(O)CC(F)(F)C(=O)N1N=C(c2c(-c3ccc(Cl)cc3)c3ccccc3[nH]c2=O)CC1c1ccc(Cl)cc1 (centres unmarked) [2i]
2.9	239	37	–	–	–	CC(C)OC(=O)CC(F)(F)C(=O)N1N=C(c2c(-c3ccc(Cl)cc3)c3ccccc3[nH]c2=O)CC1c1ccc(Cl)cc1 (centres unmarked) [2m]

From publication PMC10485906, “Development of a Dihydroquinoline–Pyrazoline GluN2C/2D-Selective Negative Allosteric Modulator of the N-Methyl-D-aspartate Receptor” (ACS Chemical Neuroscience, 2023)
